In patent US11834392B2, “KDM4B inhibitors for the treatment of inflammatory diseases and disorders” (MUSC FOUNDATION FOR RESEARCH DEVELOPMENT, priority 2019, dated 2023):
Entries after “also recorded” stand apart in the source; their conditions may differ.

What was measured:
H3K9me3 = H3K9me3 staining to confirm KDM4B inhibitory activity; assay type: cell-based
[1] = system: bone marrow derived macrophages (BMDMs); experiment: In vitro periodontal disease inflammation model (IL-6 ELISA after A.a LPS challenge); assay type: cell-based, C57BL/6 mice; settings: for immunosuppressive action (pro-inflammatory cytokine response to A.a LPS): murine macrophages, A.a LPS challenge
herpes simplex virus = settings: mice, high doses; cited from earlier work
Primary BMDMs [2] = experiment: Macrophage morphology / polarization (phalloidin 488 and DAPI staining); assay type: cell-based; settings: 50 μM 1 hour pre-treatment, A.a LPS 100 ng/mL, 24 hours
Method: (§1) Primary BMDMs were isolated and differentiated as previously described and were pre-treated with ML324 at 50 uM for 1 hour followed by A.a LPS (100 ng/mL). 24 hours later, extracellular flux was analyzed using a seahorse XFe96 instrument and following metabolic analysis, cells were incubated with phalloidin 488 and DAPI. Representative images were acquired using the Hermes […] system at 10× for morphological analysis. N=4. […] Primary BMDMs were isolated and differentiated as previously described and were pre-treated with ML324 at 50 μM for 1 hour followed by A.a LPS (100 ng/mL). […] (FIG. 5D)

Primary BMDMs [3] = experiment: Extracellular flux analysis (seahorse XFe96); assay type: cell-based
Method: as §1

KDM4B = molecular target: T1, KDM4B (Homo sapiens, UniProt O94953); experiment: KDM4B inhibition; assay type: biochemical
T1 sequence (O94953 1-1096): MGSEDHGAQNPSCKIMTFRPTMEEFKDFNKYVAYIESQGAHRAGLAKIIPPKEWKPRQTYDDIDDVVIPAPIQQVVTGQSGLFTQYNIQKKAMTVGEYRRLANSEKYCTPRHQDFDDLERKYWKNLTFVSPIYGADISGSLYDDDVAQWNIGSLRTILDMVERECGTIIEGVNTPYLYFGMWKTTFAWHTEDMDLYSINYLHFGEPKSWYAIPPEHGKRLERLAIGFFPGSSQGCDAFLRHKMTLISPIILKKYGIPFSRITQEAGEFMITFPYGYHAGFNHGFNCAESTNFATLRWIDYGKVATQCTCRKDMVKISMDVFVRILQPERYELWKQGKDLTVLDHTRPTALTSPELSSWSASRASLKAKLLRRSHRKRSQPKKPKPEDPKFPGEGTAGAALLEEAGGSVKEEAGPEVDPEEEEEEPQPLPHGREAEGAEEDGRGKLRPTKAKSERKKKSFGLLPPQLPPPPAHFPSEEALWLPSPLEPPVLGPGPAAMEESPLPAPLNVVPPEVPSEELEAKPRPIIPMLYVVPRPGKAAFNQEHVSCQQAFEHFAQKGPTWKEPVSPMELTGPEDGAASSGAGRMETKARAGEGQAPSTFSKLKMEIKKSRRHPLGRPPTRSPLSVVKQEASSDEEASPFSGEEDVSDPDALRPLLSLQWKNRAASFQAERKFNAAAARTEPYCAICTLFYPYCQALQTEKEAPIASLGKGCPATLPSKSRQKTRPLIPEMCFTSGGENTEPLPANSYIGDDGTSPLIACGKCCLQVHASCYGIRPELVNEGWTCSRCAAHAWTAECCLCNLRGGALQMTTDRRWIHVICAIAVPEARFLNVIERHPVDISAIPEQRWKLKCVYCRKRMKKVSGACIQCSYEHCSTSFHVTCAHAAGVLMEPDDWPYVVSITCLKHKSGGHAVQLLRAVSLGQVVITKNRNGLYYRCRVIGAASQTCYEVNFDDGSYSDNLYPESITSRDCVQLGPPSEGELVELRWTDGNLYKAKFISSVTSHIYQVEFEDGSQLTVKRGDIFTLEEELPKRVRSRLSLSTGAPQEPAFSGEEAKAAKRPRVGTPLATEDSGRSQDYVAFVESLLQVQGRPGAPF

[4] = cited from earlier work
Solubility = assay type: physicochemical; settings: at effective doses
H3K4me = experiment: Global H3K4me levels in fluorescence-stained macrophages after Aa-LPS challenge; assay type: cell-based
From the text: (§2) As such, KDM4B represents a new therapeutic target for treating hyper-inflammatory diseases that result in, for example, bone destruction.

osteoclast progenitors = experiment: Aa-LPS-induced osteoclastogenesis; assay type: cell-based
From the text: as §2

cytomegalovirus = settings: mice, high doses; cited from earlier work
KDM4E = molecular target: T2, KDM4E (Homo sapiens, UniProt B2RXH2); settings: in vitro; cited from earlier work
T2 sequence (B2RXH2 1-506): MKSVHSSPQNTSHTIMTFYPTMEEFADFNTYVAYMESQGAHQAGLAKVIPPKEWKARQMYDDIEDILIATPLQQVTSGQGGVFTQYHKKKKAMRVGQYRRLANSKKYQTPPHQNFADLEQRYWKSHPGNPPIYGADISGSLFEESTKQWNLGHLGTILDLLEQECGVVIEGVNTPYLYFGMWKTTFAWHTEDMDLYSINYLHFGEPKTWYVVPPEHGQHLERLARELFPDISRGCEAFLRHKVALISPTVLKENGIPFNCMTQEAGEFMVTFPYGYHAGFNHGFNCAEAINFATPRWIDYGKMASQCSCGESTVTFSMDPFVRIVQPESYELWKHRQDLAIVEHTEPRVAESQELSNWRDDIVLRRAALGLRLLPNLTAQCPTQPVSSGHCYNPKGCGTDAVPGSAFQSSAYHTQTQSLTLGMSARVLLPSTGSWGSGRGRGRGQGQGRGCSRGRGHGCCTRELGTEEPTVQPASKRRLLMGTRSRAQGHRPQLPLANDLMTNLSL

Primary BMDMs [5] = experiment: IL-10 expression by qRT-PCR in BMDMs; assay type: cell-based; settings: 50 μM 1 hour pre-treatment, A.a LPS 100 ng/mL, 24 hours
Method: Primary BMDMs were isolated and differentiated as previously described and were pre-treated with ML324 at 50 μM for 1 hour followed by A.a LPS (100 ng/mL). […] (FIG. 5D)

SMILES | H3K9me3 expression / staining (H3K9me3) | dose-dependent immunosuppressive response to A.a LPS [1] | viral replication of herpes simplex virus (herpes simplex virus) | macrophage morphology / polarization (M1 phenotype) (Primary BMDMs [2]) | glycolytic activity of LPS treated cells (Primary BMDMs [3]; 50 μM 1 hour pre-treatment, A.a LPS 100 ng/mL, 24 hours) | spare respiratory capacity (Primary BMDMs [3]; LPS with or without ML324, compared to PBS control) | IC50 (KDM4B) [µM] | activity toward KDM4B (KDM4B) | cell permeability [4] | solubility (Solubility) | global H3K4me levels following Aa-LPS challenge (H3K4me) | Aa-LPS-induced osteoclastogenesis (osteoclast progenitors) | viral replication of cytomegalovirus (cytomegalovirus) | inhibition of KDM4E (KDM4E) | immunosuppressive action (pro-inflammatory cytokine response to A.a LPS) [1] | immunosuppressive action (pro-inflammatory cytokine response to A.a LPS) ([1]; listed as 1) | IL-10 expression (mRNA) (Primary BMDMs [5])
O=C(Nc1ccccc1C(=O)O)c1ccc(-c2ccccc2)cc1 [Compound 12, 2-([1,1′-biphenyl]-4-carboxamido)benzoic acid] | concurrent increase in H3K9me3; also recorded: increase in H3K9me3 staining | dose-dependent immunosuppressive response; also recorded: dose-dependent immunosuppressive effect |  |  |  |  |  |  |  |  |  |  |  |  |  |  | 
CN(C)CCCNC(=O)c1ccc(-c2cc(O)c3ncccc3c2)cc1 [ML324] |  |  | shown to inhibit viral replication | alters macrophage polarization; also recorded: able to rescue this effect | rescued this effect | reduced spare respiratory capacity | 4.9 | active | good cell permeability | highly insoluble at effective doses | prevented by KDM4B inhibition | significant reduction | shown to inhibit viral replication | known to inhibit | decreases the pro-inflammatory cytokine response | immunosuppressive action | significantly higher IL-10 expression
